Consider 32 compounds from US6358942B1, “Phenyloxazolidinones having a c-c bond 4-8 membered heterocyclic rings” (Pharmacia & Upjohn Company, priority 1995, dated 2002).

One test relates to Staphylococcus aureus or Streptococcus species. In words: Murine Assay: in vivo antimicrobial activity, survival of mice infected intraperitoneally with bacteria.
Conditions: not given
How it is done: Antimicrobial activity was tested in vivo using the Murine Assay procedure. Groups of female mice (six mice of 18-20 grams each) were injected intraperitoneally with bacteria which were thawed just prior to use and suspended in brain heart infusion with 4% brewers yeast (Staphylococcus aureus) or brain heart infusion (Streptococcus species). Antibiotic treatment at six dose levels per drug was administered one hour and five hours after infection by either oral intubation or subcutaneous routes. Survival was observed daily for six days. ED50 values based on mortality ratios were calculated using probit analysis. The subject compounds are compared against well-known antimicrobials vancomycin and U-100592 as controls. See “Upjohn Oxazolidinone Antibacterial Agent”, posters presented at the 35th Interscience Conference on Antimicrobial Agents and Chemotherapy.
In general, ED50 refers to the midpoint of the dose-response relation. In turn, `COC(=O)N1CC=C(c2ccc(N3C[C@H](CNC(C)=O)OC3=O)cc2)CC1` [Example 62, (S)-(−)-4-[4-[5-[(Acetylamino)methyl]-2-oxo-3-oxazolidinyl]phenyl]-3,6-dihydro-1(2H)-pyridinecarboxylic acid methyl ester] returned an ED50 of 12 mg/kg.

For `COC(=O)N1CC=C(c2ccc(N3C[C@H](CNC(C)=O)OC3=O)cc2F)CC1` [Example 57, (S)-(−)-4-[4-[5-[(Acetylamino)methyl]-2-oxo-3-oxazolidinyl]-2-fluorophenyl]-3,6-dihydro-1(2H)-pyridinecarboxylic acid methyl ester], the median effective dose (ED50) was found to be 6.2 mg/kg.

Still in this test, the particulars now being: Table 1; female mice; treatment 1 h and 5 h after infection, oral intubation or subcutaneous; survival over six days; probit analysis of mortality ratios.
Turning to `CC(=O)NC[C@H]1CN(c2ccc(C3(C)CN(C(C)=O)C3)c(F)c2)C(=O)O1` [Example 10, (S)-N-[[3-[3-Fluoro-4-[1-acetyl-3-(3-methyl)-azetidinyl]-phenyl]-2-oxo-5-oxazolidinyl]methyl]-acetamide], the “ED50” value is on record as 20.00 mg/kg.

Take `CC(=O)NC[C@H]1CN(c2ccc(C3=CCOCC3)c(F)c2)C(=O)O1` [Example 47, (S)-(−)-N-[[3-[4-(3,6-Dihydro-2H-pyran-4-yl)-3-fluoropheny]-2-oxo-5-oxazolidinyl]methyl]acetamide]: the “ED50” value was 7.10 mg/kg.

Regarding `CC(=O)NC[C@H]1CN(c2ccc(C3(C)CN(CCF)C3)c(F)c2)C(=O)O1` [Example 11, (S)-N-[[3-[3-Fluoro-4-[1-(2-fluoroethyl)-3-(3-methyl) -azetidinyl]-phenyl]-2-oxo-5-oxazolidinyl]methyl]-acetamide], the 50% effective dose (ED50) is on record as above 20.00 mg/kg.

`CC(=O)NC[C@H]1CN(c2ccc(C3=CCN(C(=O)CO)CC3)c(F)c2)C(=O)O1` [Example 40, (S)-(−)-N-[[3-[4-[1-(Hydroxyacetyl)-3,6-dihydro-2H-pyridin-4-yl]-3-fluoropheny]-2-oxo-5-oxazolidinyl]methyl]acetamide]: the median effective dose (ED50) is listed as 1.00 mg/kg.

On to `CC(=O)NC[C@H]1CN(c2ccc(C3(C)CN(C(=O)CO)C3)c(F)c2)C(=O)O1` [Example 16, (S)-N-[[3-[3-Fluoro-4-[1-(hydroxyacetyl)-3-(3-methyl)azetidinyl]-phenyl]-2-oxo-5-oxazolidinyl]methyl]-acetamide], for which the “ED50” value is given as 17.00 mg/kg.

`CC(=O)NC[C@H]1CN(c2ccc(C3(C)CN(CC#N)C3)c(F)c2)C(=O)O1` [Example 12, (S)-N-[[3-[3-Fluoro-4-[1-(cyanomethyl)-3-(3-methyl) -azetidinyl]-phenyl]-2-oxo-5-oxazolidinyl]methyl]-acetamide]: the “ED50” value was 20.00 mg/kg.

As for `CC(=O)NC[C@H]1CN(c2ccc(C3(C)CN(c4ncc([N+](=O)[O-])s4)C3)c(F)c2)C(=O)O1` [Example 13, (S)-N-[[3-[3-Fluoro-4-[1-(5-nitro-2-thiazolyl)-3-(3-methyl) -azetidinyl]-phenyl]-2-oxo-5-oxazolidinyl]methyl]-acetamide], the “ED50” value is above 10.00 mg/kg.

Regarding `COC(=O)N1CC(C)(c2ccc(N3C[C@H](CNC(C)=O)OC3=O)cc2F)C1` [Example 3], the “ED50” value is 5.00 mg/kg.

With `CC(=O)NC[C@H]1CN(c2ccc(C3(C)CN(C(=O)C(Cl)Cl)C3)c(F)c2)C(=O)O1` [Example 6, (S)-N-[[3-[3-Fluoro-4-[1-(dichloroacetyl)-3-(3-methyl) -azetidinyl]-phenyl]-2-oxo-5-oxazolidinyl]methyl]-acetamide], the “ED50” value was above 20.00 mg/kg.

Staying with this test, now noted: Table 1; female mice; treatment 1 h and 5 h after infection, oral intubation or subcutaneous; survival over six days; probit analysis of mortality ratios; read-out: ED50.
Take `CC(=O)NC[C@H]1CN(c2ccc(C3CCN(C(=O)CO)C3)c(F)c2)C(=O)O1` (stereo partly drawn) [Example 44, (5S)-N-[[3-[3-Fluoro-4-[1-(hydroxyacetyl)-3-pyrrolidinyl]phenyl]-2-oxo-5-oxazolidinyl]methyl]acetamide]: the ED50 is 5 mg/kg.

As for `O=C(NC[C@H]1CN(c2ccc(C3CCN(C(=O)CO)CC3)c(F)c2)C(=O)O1)C(Cl)Cl` [Example 33, (S)-(−)-2,2-Dichloro-N-[[2-oxo-3-[3-fluoro-4-[1-(hydroxyacetyl)-4-piperidinyl]phenyl]-5-oxazolidinyl]methyl]acetamide], the 50% effective dose (ED50) turned out to be 10.6 mg/kg.

As to `CC(=O)NC[C@H]1CN(c2ccc(C3CCN(C(=O)CO)CC3)c(F)c2)C(=O)O1` [Example 22, (S)-(−)-N-[[3-[4-[1-(Hydroxyacetyl)-4-piperidinyl]-3-fluorophenyl]-2-oxo-5-oxazolidinyl]methyl]acetamide], the median effective dose (ED50) amounted to 2.3 mg/kg.

On to `CC(=O)NC[C@H]1CN(c2ccc(C3CCN(C(=O)COC(C)=O)CC3)c(F)c2)C(=O)O1` [Example 34, (S)-(−)-N-[[2-Oxo-3-[3-fluoro-4-[1-[(acetoxy)acetyl]-4-piperidinyl]phenyl]-5-oxazolidinyl]methyl]acetamide], for which the ED50 is 6.3 mg/kg.

Take `CC(=O)NC[C@H]1CN(c2cc(F)c(C3CCN(C(=O)CO)CC3)c(F)c2)C(=O)O1` [Example 37, (S)-(−)-N-[[3-[4-[1-(Hydroxyacetyl)-4-piperidinyl]-3,5-difluorophenyl]-2-oxo-5-oxazolidinyl]methyl]acetamide]: the 50% effective dose (ED50) amounted to 8.7 mg/kg.

As to `CC(=O)NC[C@H]1CN(c2ccc(C3CCN(C=O)CC3)c(F)c2)C(=O)O1` [Example 29, (S)-(−)-N-[[3-[4-[1-(Formyl)-4-piperidinyl]-3-fluorophenyl]-2-oxo-5-oxazolidinyl]methyl]acetamide], the ED50 is 5 mg/kg.

On to `CC(=O)NC[C@H]1CN(c2ccc(C3CCN(C(=O)CO)CC3)cc2)C(=O)O1` [Example 19, (S)-(−)-N-[[3-[4-[1-(Hydroxyacetyl)-4-piperidinyl]phenyl]-2-oxo-5-oxazolidinyl]methyl]acetamide], for which the median effective dose (ED50) was determined as 6.8 mg/kg.

Still in this test, the particulars now being: Table 2; female mice; treatment 1 h and 5 h after infection, oral intubation or subcutaneous; survival over six days; probit analysis of mortality ratios.
As for `CC(=O)NC[C@H]1CN(c2ccc(C3=CCCN(C(=O)CO)C3)c(F)c2)C(=O)O1` [Example 71, (S)-N-[[3-[4-[1-(Hydroxyacetyl)-5,6-dihydro-2H-pyridin-3yl]-3-fluoropheny]-2-oxo-5-oxazolidinyl]methyl]acetamide], the “ED50” value is on record as 13.4 mg/kg.

`CC(=O)NC[C@H]1CN(c2ccc(C3=CC[S+]([O-])CC3)c(F)c2)C(=O)O1` (stereo partly drawn) [Example 63, (S)-(−)-N-[[3-[4-(3,6-Dihydro-2H-thiopyran-4-yl)-3-fluoropheny]-2-oxo-5-oxazolidinyl]methyl]acetamide S-oxide]: the 50% effective dose (ED50) stood at 4.90 mg/kg.

Turning to “(5S)-N-[[3-[3-Fluoro-4-[1-(formyl)-3-pyrrolidinyl]phenyl]-2-oxo-5-oxazolidinyl]methyl] [Example 45]”, the “ED50” value is recorded as 2.80 mg/kg.

For the compound `CC(=O)NC[C@H]1CN(c2ccc(C3=CCS(=O)(=O)CC3)c(F)c2)C(=O)O1` [Example 50, (S)-(−)-N-[[3-[4-(3,6-Dihydro-2H-thiopyran-4-yl)-3-fluoropheny]-2-oxo-5-oxazolidinyl]methyl]acetamide S,S-dioxide], the “ED50” value was 2.20 mg/kg.

Regarding `COC(=O)N1CCC(c2ccc(N3C[C@H](CNC(C)=O)OC3=O)cc2F)C1` (stereo partly drawn) [Example 46, (5S)-3-[4-[5-[(Acetylamino)methyl]-2-oxo-3-oxazolidinyl]-2-fluoropheny]-1-pyrrolidinecarboxylic acid methyl ester], the 50% effective dose (ED50) is reported as 7.90 mg/kg.

`CC(=O)NC[C@H]1CN(c2ccc(C3=CCS(=O)(=O)CC3)cc2)C(=O)O1` [Example 55, (S)-(−)-N-[[3-[4-(3,6-Dihydro-2H-thiopyran-4-yl)phenyl]-2-oxo-5-oxazolidinyl]methyl]acetamide S,S-dioxide]: the 50% effective dose (ED50) turned out to be 2.30 mg/kg.

“(S)-(−)-N-[[3-[3-Fluoro-4-(dihydrothien-3-yl)-phenyl]-2-oxo-5-oxazolidinyl]methyl]acetamide [Example 67]”: the “ED50” value is given as 13.3 mg/kg.

The same test, now with this note: Table 2; female mice; treatment 1 h and 5 h after infection, oral intubation or subcutaneous; survival over six days; probit analysis of mortality ratios; read-out: ED50.
Regarding `CC(=O)NC[C@H]1CN(c2ccc(C3=CCN(C(=O)COC(C)=O)CC3)cc2)C(=O)O1` [Example 59, (S)-(−)-N-[[2-Oxo-3-[4-[1-[(acetoxy)acetyl]-3,6-dihydro-2H-pyridin-4-yl]phenyl]-5-oxazolidinyl]methyl]acetamide], the ED50 was determined as 4.2 mg/kg.

As to `CC(=O)NC[C@H]1CN(c2ccc(C3(F)CCN(C=O)CC3)c(F)c2)C(=O)O1` [Example 74, (S)-(−)-N-[[3-[4-[1-Formyl-4-fluoro-4-piperidinyl]-3-fluorophenyl]-2-oxo-5-oxazolidinyl]methyl]acetamide], the ED50 is 10.3 mg/kg.

On to `CC(=O)NC[C@H]1CN(c2ccc(C3CN(C=O)C3)c(F)c2)C(=O)O1` [Example 84, (S)-N-[[3-[3-Fluoro-4-[1-(formyl)-3-azetidinyl]phenyl]-2-oxo-5-oxazolidinyl]methyl]acetamide], for which the 50% effective dose (ED50) was 6.5 mg/kg.

On to `CC(=O)NC[C@H]1CN(c2ccc(C3=CCN(C(=O)CO)CC3)cc2)C(=O)O1` [Example 60, (S)-(−)-N-[[3-[4-[1-(Hydroxyacetyl)-3,6-dihydro-2H-pyridin-4-yl]phenyl]-2-oxo-5-oxazolidinyl]methyl]acetamide], for which the ED50 was 3.1 mg/kg.

`CC(=O)NC[C@H]1CN(c2ccc(C3=CCOCC3)cc2)C(=O)O1` [Example 52, (S)-(−)-N-[[3-[4-(3,6-Dihydro-2H-pyran-4-yl)phenyl]-2-oxo-5-oxazolidinyl]methyl]acetamide]: the ED50 stood at 4 mg/kg.

`CC(=O)NC[C@H]1CN(c2ccc(C3CCOCC3)cc2)C(=O)O1` [Example 53, (S)-(−)-N-[[3-[4-[Tetrahydro-2H-pyran-4-yl]phenyl]-2-oxo-5-oxazolidinyl]methyl]acetamide]: the median effective dose (ED50) was above 20 mg/kg.

As to `CC(=O)NC[C@H]1CN(c2ccc(C3=CCN(C=O)CC3)cc2)C(=O)O1` [Example 61, (S)-(−)-N-[[3-[4-[1-(Formyl)-3,6-dihydro-2H-pyridin-4-yl]phenyl]-2-oxo-5-oxazolidinyl]methyl]acetamide], the ED50 amounted to 6.1 mg/kg.
